Experimental data reported in ChEMBL document CHEMBL1201862, “PubChem BioAssay data set” (2004).
Calls of active or inactive are those of the source.

Legend:
Estrogen receptor = molecular target: T1, Estrogen receptor (Homo sapiens, UniProt P03372); test: potentiators of ERα–SRC-1 coactivator binding, dose response, biochemical, TR-FRET, ERα LBD (AID 737)
T1 sequence (P03372 whole entry): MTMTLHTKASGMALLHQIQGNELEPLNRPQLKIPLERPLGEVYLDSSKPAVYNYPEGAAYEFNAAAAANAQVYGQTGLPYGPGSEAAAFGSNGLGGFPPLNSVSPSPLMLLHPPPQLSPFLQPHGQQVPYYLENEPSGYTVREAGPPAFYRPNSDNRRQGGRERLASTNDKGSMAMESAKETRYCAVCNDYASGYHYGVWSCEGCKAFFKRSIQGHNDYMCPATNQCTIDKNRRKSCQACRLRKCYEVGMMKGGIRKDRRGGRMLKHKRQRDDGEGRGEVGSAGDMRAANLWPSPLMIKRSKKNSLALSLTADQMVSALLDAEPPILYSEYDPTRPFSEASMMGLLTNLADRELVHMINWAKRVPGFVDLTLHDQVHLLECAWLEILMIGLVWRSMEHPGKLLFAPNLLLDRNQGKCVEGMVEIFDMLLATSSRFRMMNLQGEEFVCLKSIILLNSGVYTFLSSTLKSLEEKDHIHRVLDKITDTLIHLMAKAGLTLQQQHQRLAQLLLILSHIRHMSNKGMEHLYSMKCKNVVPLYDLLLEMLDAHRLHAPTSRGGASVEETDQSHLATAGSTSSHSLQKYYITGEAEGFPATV

[1] = molecular target: Protein disulfide-isomerase (Homo sapiens, UniProt P07237); test: PDI inhibitors, insulin aggregation turbidity, dose response, biochemical, absorbance, cherry-picked samples (AID 602350); format: functional
[2] = molecular target: T2, Heat shock factor protein 1 (Mus musculus, UniProt P38532); test: inhibition of MG132-induced HSE-luciferase signal, confirmation, cell-based, NIH3T3, luminescence, dose retest (AID 2382); format: functional;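 also: NIH3T3 fibroblasts with HSF1-driven luciferase reporter stressed by proteasome inhibitor MG132; luminescence from HSF1-driven luciferase expression after 8 hours of MG132 stress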
T2 sequence (P38532 whole entry): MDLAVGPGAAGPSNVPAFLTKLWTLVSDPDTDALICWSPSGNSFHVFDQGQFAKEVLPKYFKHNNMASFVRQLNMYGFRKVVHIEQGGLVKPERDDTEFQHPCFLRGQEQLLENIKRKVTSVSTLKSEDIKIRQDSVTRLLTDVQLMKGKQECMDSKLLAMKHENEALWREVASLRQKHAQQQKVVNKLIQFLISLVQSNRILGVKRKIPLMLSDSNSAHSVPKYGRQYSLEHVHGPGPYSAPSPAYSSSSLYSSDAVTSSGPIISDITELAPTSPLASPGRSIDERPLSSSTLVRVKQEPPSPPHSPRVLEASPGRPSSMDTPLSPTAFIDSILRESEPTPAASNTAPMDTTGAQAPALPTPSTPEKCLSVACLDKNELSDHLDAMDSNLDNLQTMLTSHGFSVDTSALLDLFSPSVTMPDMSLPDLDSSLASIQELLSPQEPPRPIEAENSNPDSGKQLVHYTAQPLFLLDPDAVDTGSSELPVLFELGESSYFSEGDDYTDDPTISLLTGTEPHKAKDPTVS

[3] = molecular target: T3, Luciferin 4-monooxygenase (Photinus pyralis, UniProt P08659); test: firefly luciferase enzyme inhibitors, dose response, biochemical, dry powder samples, plate reader (AID 588451)
[4] = A549 cell cytotoxicity, dose response, cytotoxicity control, plate reader, cherry-pick, antagonist series (AID 743412); format: functional, cell-based
[5] = CEM21 lymphoblast cell cytotoxicity, dose response, cytotoxicity control for viral fusion inhibitor project, CellTiter-Glo luminescence, cherry-picked (AID 652042); format: functional, cell-based;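 also: potency for signal decrease meaning cytotoxicity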
[6] = HepG2 cell cytotoxicity, dose response, cytotoxicity control, plate reader, cherry-pick, antagonist series (AID 743416); format: functional, cell-based
[7] = ZM109 Env clade C HIV-1 fusion inhibitors, dose response, HeLa effector, CEM target cells, luciferase, cherry-pick (AID 652058); format: functional, cell-based
[8] = HepG2 cell cytotoxicity, dose response, cytotoxicity control for Shn3 inhibitor project, CellTiter-Glo, cherry-picked (AID 624134); format: functional, cell-based
[9] = LGR2 antagonists, dose response, cell-based, HEK293, CRE-luciferase reporter, cherry pick, set 2 (AID 743343); format: functional;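 also: transfected cells were stimulated with diluted bursicon conditioned medium after compound addition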
H4 [10] = test: Inhibitors of Prion Protein 5' UTR mRNA Measured in Cell-Based System Using Plate Reader - 2078-01_Inhibitor_Dose_DryPowder_Activity. [Related pubchem assays (depositor defined):AID488894]; format: functional; settings: Homo sapiens
[11] = MC4R antagonists, dose response, counter-screen for LGR2 antagonist project, cell-based, plate reader, cherry pick (AID 743444); format: functional;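 also: transfected HEK 293 cells stimulated with alpha-MSH peptide; potency of inhibitors of the alpha-MSH evoked signal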
[12] = inhibitors of HIV Env-driven cell fusion, dose response, cherry-pick (AID 652057); format: functional, cell-based
[13] = HEK293 cell cytotoxicity, dose response, cytotoxicity control, plate reader, cherry-picked samples (AID 743446); format: functional, cell-based
[14] = Luminescence Cell-Based Dose Confirmation HTS to Identify Inhibitors of Platelet Dense Granule Release. [Related pubchem assays: 1663 (Primary HTS), 1678 (Summary of Project)]; format: functional
H4 [15] = test: Amyloid Precursor 5' UTR neuroblastoma cell reporter line Measured in Cell-Based System Using Plate Reader - 2078-04_Inhibitor_Dose_DryPowder_Activity. [Related pubchem assays (depositor defined):AID488894]; format: functional; settings: Homo sapiens
[16] = Shn3 3'UTR reporter inhibitors, dose response, cell-based, Clone20 osteoblasts, firefly luciferase, cherry-picked (AID 624132); format: functional;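 also: firefly luciferase luminescence from reporter carrying the Shn3 3'UTR in osteoblasts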
[17] = cytotoxicity in HEK-293T cells, dose response, cytotoxicity control for TCR NF-kB inhibitor project, luminescence, T-cell screen hits (AID 489026); format: functional, cell-based;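 also: cells exposed to compound about 14 hours before the viability readout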
[18] = inhibitors of clade B AD8 Env fusion, dose response, cell-based, cherry-pick (AID 652062); format: functional;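 also: luciferase signal from cell-cell fusion driven by HIV-1 clade B AD8 Env; potency is for inhibitors of fusion seen as a drop in luminescence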
[19] = molecular target: T3, Luciferin 4-monooxygenase; test: firefly luciferase enzyme inhibitors, dose response, biochemical, luminescence (AID 1891)
[20] = reduction of Shn3 3'UTR firefly luciferase signal, dose response, Schnurri-3 inhibitor project, cell-based, Clone20 osteoblasts, cherry-pick, set 2 (AID 720490); format: functional;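 also: actives lower the luminescence signal as inhibitors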
[21] = Luminescence Cell-Based Dose Response HTS to Identify Inhibitors of 5'UTR Stem-Loop Driven Prion Protein mRNA Translation in H4 Neuroglioblastoma Cells. [Related pubchem assays: 1827 (Project Summary), 1813 (Primary HTS)]; format: functional
[22] = inhibitors of firefly luciferase expression or activity, dose response, H4 neuroglioma cells, luminescence (AID 1990); format: functional, cell-based
H4 [23] = test: inhibitors of control reporter signal in H4 cells – cell-based, plate reader, dry powder samples, counter-screen for prion reporter project, dose response (AID 540255); format: functional; settings: Homo sapiens
[24] = inhibitors of SNCA 5'UTR-driven reporter translation, confirmation, H4 neuroglioma cells, luminescence (AID 1988); format: functional, cell-based
[25] = off-target signal loss in HeLa-CEM21 co-culture – HeLa F-luc CTL cells, cherry-picked, counter-screen for HIV-1 Env fusion inhibitor project, dose response (AID 652040); format: functional, cell-based;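 also: potency for signal decrease marking cytotoxic or nonspecific inhibition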
[26] = molecular target: 26S proteasome non-ATPase regulatory subunit 14 (Homo sapiens, UniProt O00487); test: inhibition of proteasome subunit RPN11 – biochemical, fluorescence polarization, uHTS hits, confirmation (AID 602368); format: functional
Prothrombin = Prothrombin (Bos taurus, UniProt P00735); test: thrombin inhibition, dose response, biochemical, fluorescence polarization, uHTS hits (AID 602369); format: functional
Streptococcus = test: Group A Streptococcus viability loss, dose response, counter-screen for streptokinase expression inhibitor project, luminescence, BacTiterGlo (AID 1915); format: functional, organism-based;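 also: potency for reduction of bacterial viability or growth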
[27] = molecular target: 72 kDa type IV collagenase (Homo sapiens, UniProt P08253); test: Dose Response validation of uHTS RPN11 inhibitor hits using a MMP-2 Fluorescence assay.; format: functional
Streptokinase A = molecular target: T4, Streptokinase A (Streptococcus pyogenes serotype M1, UniProt P10520); test: S. pyogenes streptokinase expression inhibitors, potency, dose response, plasminogen activation absorbance, OD405 (AID 1914); format: functional, Streptococcus pyogenes M1 GAS;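 also: secreted streptokinase activity via plasminogen activation per viability signal from cell pellet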
T4 sequence (P10520 whole entry): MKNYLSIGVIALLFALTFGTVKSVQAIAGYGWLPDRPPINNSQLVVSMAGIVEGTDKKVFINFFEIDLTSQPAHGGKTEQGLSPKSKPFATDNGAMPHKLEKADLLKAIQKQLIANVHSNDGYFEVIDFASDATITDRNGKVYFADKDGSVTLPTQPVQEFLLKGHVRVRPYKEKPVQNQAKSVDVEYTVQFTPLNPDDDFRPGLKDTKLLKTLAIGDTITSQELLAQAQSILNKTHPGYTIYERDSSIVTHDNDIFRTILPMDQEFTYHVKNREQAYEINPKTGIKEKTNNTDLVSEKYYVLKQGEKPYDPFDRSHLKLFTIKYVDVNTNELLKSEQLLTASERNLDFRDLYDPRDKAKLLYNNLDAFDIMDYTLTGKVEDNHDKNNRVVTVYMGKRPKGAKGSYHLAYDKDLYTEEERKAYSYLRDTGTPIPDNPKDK

[28] = test system: Streptococcus sp. 'group A'; test: growth inhibition of control SK(-) GAS strain, dose response, counter-screen for streptokinase expression inhibitor project, luminescence, kanamycin, BacTiterGlo, confirmation (AID 1900); format: functional, organism-based
Melanocortin receptor 4 = Melanocortin receptor 4 (Homo sapiens, UniProt P32245); test: MC4R antagonist potency on cAMP, dose response, cell-based, TR-FRET, biased antagonists (AID 602298); format: functional;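 also: antagonist potency against agonist-stimulated cAMP production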
[29] = nonselective inhibitors of cellular cAMP signaling, dose response, counter-screen for MC4R biased antagonist project, cell-based, TR-FRET cAMP detection (AID 602305); format: functional;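 also: U2OS cells stimulated with forskolin near its EC80 as the cAMP inducer; potency is for inhibition of forskolin-stimulated cAMP signaling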
[30] = molecular target: Melanin-concentrating hormone receptor 1 (Homo sapiens, UniProt Q99705); test: Late-stage fluorescence-based counterscreen for antagonists of the G-protein coupled receptor 7 (GPR7): cell-based dose response assay to identify antagonists of the melanin-concentrating hormone receptor 1 (MCHR1) Set 6.; format: functional
[31] = molecular target: T5, Neuropeptides B/W receptor type 1 (Homo sapiens, UniProt P48145); test: GPR7 antagonist potency, late-stage follow-up, cell-based, fluorescence, dose response, set 6 (AID 588583); format: functional
T5 sequence (P48145 whole entry): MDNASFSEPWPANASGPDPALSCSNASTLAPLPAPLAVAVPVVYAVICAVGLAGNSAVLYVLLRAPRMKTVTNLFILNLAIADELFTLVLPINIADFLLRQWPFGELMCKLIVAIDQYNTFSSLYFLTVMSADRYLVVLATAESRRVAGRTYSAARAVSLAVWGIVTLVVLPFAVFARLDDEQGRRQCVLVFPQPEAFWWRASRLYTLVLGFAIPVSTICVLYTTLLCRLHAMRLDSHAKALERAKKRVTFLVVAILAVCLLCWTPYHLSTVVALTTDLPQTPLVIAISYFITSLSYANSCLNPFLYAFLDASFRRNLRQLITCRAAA

[32] = THP-1 cell cytotoxicity, dose response, cytotoxicity control, set 3 (AID 504852); format: functional; settings: Mycobacterium tuberculosis
Aurora kinase B = Aurora kinase B (Homo sapiens, UniProt Q96GD4); format: functional
Sequence of Aurora kinase B (Q96GD4 whole entry): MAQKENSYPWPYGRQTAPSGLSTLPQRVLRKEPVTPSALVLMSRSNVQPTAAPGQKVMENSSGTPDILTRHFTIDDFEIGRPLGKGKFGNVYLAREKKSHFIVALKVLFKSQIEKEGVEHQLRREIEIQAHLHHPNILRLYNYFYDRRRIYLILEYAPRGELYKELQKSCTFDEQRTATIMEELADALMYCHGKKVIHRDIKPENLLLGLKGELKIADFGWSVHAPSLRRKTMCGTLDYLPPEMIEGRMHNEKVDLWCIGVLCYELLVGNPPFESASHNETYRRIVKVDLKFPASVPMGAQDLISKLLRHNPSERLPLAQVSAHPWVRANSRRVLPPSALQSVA

T3 sequence (P08659 whole entry): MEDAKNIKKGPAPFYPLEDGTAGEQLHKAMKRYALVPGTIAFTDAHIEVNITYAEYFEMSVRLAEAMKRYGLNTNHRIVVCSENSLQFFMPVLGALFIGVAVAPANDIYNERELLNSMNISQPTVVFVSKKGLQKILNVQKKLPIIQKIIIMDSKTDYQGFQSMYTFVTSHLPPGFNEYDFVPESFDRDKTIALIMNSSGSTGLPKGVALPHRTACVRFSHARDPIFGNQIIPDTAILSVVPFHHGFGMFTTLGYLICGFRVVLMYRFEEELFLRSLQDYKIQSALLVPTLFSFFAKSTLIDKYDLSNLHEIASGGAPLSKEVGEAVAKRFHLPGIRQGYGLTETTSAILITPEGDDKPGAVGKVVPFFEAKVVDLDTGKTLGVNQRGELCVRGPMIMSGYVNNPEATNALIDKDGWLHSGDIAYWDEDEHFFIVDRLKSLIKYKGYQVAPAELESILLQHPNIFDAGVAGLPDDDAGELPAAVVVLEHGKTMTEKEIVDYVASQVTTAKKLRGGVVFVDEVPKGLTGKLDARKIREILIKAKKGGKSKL
Sequence of 26S proteasome non-ATPase regulatory subunit 14 (O00487 whole entry): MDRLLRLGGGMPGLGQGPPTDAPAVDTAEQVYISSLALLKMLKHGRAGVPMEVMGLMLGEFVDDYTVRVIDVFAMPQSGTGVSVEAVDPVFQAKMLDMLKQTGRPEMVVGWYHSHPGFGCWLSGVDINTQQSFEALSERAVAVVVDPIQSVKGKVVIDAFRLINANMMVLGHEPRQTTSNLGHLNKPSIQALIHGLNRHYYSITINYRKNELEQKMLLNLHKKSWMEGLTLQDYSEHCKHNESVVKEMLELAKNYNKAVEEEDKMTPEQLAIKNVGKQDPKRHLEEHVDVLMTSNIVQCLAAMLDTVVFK
Sequence of 72 kDa type IV collagenase (P08253 whole entry): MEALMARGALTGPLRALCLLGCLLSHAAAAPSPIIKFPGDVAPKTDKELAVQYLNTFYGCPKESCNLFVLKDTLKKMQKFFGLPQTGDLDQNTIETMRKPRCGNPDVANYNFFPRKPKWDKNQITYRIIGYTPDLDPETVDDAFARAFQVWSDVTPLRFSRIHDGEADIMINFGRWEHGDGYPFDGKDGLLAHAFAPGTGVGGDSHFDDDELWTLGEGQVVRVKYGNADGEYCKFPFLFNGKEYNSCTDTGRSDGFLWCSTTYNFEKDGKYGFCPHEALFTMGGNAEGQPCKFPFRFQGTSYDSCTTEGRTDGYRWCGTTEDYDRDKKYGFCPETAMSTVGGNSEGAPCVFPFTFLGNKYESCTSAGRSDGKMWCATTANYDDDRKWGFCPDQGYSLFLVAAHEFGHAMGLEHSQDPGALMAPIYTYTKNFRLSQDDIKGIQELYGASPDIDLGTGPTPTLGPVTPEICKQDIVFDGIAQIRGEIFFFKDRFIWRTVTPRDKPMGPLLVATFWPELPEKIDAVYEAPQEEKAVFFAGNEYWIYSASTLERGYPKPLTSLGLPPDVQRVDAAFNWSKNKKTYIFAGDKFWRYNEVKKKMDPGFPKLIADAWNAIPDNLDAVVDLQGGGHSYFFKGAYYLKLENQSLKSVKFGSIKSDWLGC
Sequence of Protein disulfide-isomerase (P07237 whole entry): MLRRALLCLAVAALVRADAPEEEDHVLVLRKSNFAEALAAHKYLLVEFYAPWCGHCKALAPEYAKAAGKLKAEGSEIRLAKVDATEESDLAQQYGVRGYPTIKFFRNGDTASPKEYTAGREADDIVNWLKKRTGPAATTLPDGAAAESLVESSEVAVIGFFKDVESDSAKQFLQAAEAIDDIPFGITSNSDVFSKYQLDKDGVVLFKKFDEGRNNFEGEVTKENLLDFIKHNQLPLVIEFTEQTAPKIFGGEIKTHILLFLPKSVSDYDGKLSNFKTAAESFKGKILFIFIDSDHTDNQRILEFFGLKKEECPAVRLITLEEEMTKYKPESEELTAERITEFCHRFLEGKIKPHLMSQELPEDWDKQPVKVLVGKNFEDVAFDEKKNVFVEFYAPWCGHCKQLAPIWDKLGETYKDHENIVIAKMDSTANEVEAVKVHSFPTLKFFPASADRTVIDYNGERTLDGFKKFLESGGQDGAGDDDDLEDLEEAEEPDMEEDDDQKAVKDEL
Sequence of Melanocortin receptor 4 (P32245 whole entry): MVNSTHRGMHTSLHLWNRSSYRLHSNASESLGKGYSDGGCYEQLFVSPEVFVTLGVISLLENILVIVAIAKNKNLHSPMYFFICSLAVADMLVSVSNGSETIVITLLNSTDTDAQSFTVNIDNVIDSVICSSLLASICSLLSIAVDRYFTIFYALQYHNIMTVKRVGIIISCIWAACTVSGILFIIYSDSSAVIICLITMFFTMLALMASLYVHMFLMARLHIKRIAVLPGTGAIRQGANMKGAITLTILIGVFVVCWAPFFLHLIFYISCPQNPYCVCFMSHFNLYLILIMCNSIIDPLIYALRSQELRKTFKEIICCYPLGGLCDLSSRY
Sequence of Melanin-concentrating hormone receptor 1 (Q99705 whole entry): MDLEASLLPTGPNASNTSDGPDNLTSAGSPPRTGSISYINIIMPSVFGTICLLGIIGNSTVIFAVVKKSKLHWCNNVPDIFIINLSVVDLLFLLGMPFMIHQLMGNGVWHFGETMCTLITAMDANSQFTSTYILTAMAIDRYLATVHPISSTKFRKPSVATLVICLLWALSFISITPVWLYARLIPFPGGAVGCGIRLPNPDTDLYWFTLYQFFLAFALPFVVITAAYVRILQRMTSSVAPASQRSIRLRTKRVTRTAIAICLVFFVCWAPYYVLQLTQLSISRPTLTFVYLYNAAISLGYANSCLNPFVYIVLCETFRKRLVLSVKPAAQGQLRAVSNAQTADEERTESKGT

SMILES: C[C@]12CC[C@@H]3c4ccc(O[C@@H]5O[C@H](C(=O)O)[C@@H](O)[C@H](O)[C@H]5O)cc4CC[C@H]3[C@@H]1C[C@@H](O)[C@@H]2O
- EC50 (Estrogen receptor): 9160 nM (active)
- AC50 [1]: 15700 nM (active)
- EC50 [2]: > 195000 nM (not active)

SMILES: Cc1c(C)c2ccc(OCC(=O)Nc3ccccn3)c(C)c2oc1=O
- AC50 [3]: 101 nM (active)
- AC50 [4]: 33500 nM (active)
- AC50 [5]: 35000 nM (active)
- AC50 [6]: 25300 nM (active)
- AC50 [7]: 6610 nM (active)
- AC50 [8]: 37100 nM (active)
- AC50 [9]: 80.2 nM (active)
- AC50 (H4 [10]): 27 nM (active)
- AC50 [11]: < 68 nM (active)
- AC50 [12]: 1710 nM (active)
- AC50 [13]: 48700 nM (active)
- EC50 [14]: 2730 nM (active)
- AC50 (H4 [15]): 10.3 nM (active)
- AC50 [16]: 416 nM (active)
- IC50 [17]: > 80000 nM (inactive)
- AC50 [18]: 429 nM (active)
- EC50 [19]: 629 nM (active)
- AC50 [20]: 1770 nM (active)
- EC50 [21]: 214 nM (active)
- EC50 [22]: 360 nM (active)
- AC50 (H4 [23]): 21 nM (active)
- EC50 [24]: 236 nM (active)
- AC50 [25]: 1830 nM (active)
- EC50 [2]: < 160 nM (active)

SMILES: O=C1NC(=S)N(C2CCCCC2)C(=O)/C1=C/NNC(=O)c1ccccc1
- IC50 [26]: 40300 nM (active)
- IC50 (Prothrombin): 36100 nM (active)
- EC50 (Streptococcus): 8220 nM (active)
- IC50 [27]: > 100000 nM (inactive)
- EC50 (Streptokinase A): > 150000 nM (not active)
- EC50 [28]: 519 nM (active)

SMILES: CCOC(=O)c1cnc2ccc(OCC)cc2c1NCc1ccccc1
- IC50 (Melanocortin receptor 4): > 64600 nM (inactive)
- IC50 [29]: > 64600 nM (inactive)

SMILES: N#CC(c1ccccn1)c1c(Br)cnn(Cc2cccc3ccccc23)c1=O (centres undefined)
- IC50 [30]: 800 nM (active)
- IC50 [31]: 800 nM (active)

SMILES: CCOC1OC(=O)C(Cl)=C1Nc1ccccc1C (centres undefined)
- CC50 [32]: > 100000 nM (active)

SMILES: Cc1cccc(Nc2nccc(Nc3ccccc3C(=O)O)n2)c1
- Ki (Aurora kinase B): 1.26 nM (active)
